Data set [1] is described as follows: Pharmacokinetics of compound (I), alone versus in combination with (III) and ritonavir, healthy subjects. The data set is classed as in vivo, human. To be noted: geometric mean; for Cmax / AUC(0-t): human, in vivo; for AUC(0-t): read-out: AUC24 h. As for the experimental part: The pharmacokinetic variables for the compound of formula (I) and (III) administered alone where compared when they were co-administered in a combination of (I), (II) and (III). All tables indicate Geometric mean (CV %) pharmacokinetic parameters and might be the result of multiple studies. The compounds are indicated by their respective numbers (I, II or III) in the tables below. A comparison is made between administration of compound of Formula (I) 150 mg alone versus 300 mg compound of formula (III) in combination with 50 mg of compound of Formula (I) and 20 mg of Ritonavir (compound of Formula (II) according to the following protocol. • 150 mg qd (I) given for 14 days to 10 healthy subjects • Washout of 14 days • 50 mg qd (I), 300 mg qd (III), 20 mg qd ritonavir (II) given for 14 days to the same 10 healthy volunteers.

A short description of data set [2]: Pharmacokinetics of compound (III), alone versus in combination with (I) and ritonavir. Type of data set: in vivo, human. To be noted: geometric mean (CV%); for Cmax / AUC(0-t): human, in vivo; for AUC(0-t): read-out: AUC24 h. As for the experimental part: The pharmacokinetic variables for the compound of formula (I) and (III) administered alone where compared when they were co-administered in a combination of (I), (II) and (III). All tables indicate Geometric mean (CV %) pharmacokinetic parameters and might be the result of multiple studies. The compounds are indicated by their respective numbers (I, II or III) in the tables below. A comparison is made between an administration of compound of Formula (III) 1000 mg alone, versus 300 mg compound of formula (III) in combination with 50 mg of compound of Formula (I) and 20 mg of Ritonavir (compound of Formula (II). The results are indicated in table 2 below.

Setting [3] is: 50 mg (I) + 300 mg (III) + 20 mg RTV qd for 14 days, same 10 healthy volunteers.
Setting [4] is: (I) alone, 150 mg qd for 14 days, 10 healthy subjects.
Setting [5] is: 300 mg (III) + 50 mg (I) + 20 mg (II) qd.

We go through 2 compounds from patent US20150209366A1, “COMBINATION OF A MACROCYCLIC PROTEASE INHIBITOR OF HCV, A NON-NUCLEOSIDE HCV INHIBITOR AND RITONAVIR” (Janssen Pharmaceuticals, Inc., priority 2012, published 2015).

Usually Cmax stands for the highest concentration seen after dosing.

Regarding `COc1ccc2c(O[C@@H]3C[C@H]4C(=O)N[C@]5(C(=O)NS(=O)(=O)C6CC6)C[C@H]5/C=C\CCCCN(C)C(=O)[C@@H]4C3)cc(-c3nc(C(C)C)cs3)nc2c1C` [I, (1R,4R,6S,15R,17R)-cis-N-[17-[2-(4-isopropylthiazole-2-yl)-7-methoxy-8-methylquinolin-4-yloxy]-13-methyl-2,14-dioxo-3,13-diazatricyclo[13.3.0.0^4,6]octadec-7-ene-4-carbonyl]-(cyclopropyl)sulfonamide], in data set [1] (setting [3]), the Cmin was 375 ng/mL, the Cmax was determined as 1460 ng/mL and the AUC(0-t) came out at 20000 ng·h/mL. In data set [1] (setting [4]), the Cmin was 1405 ng/mL, the Cmax turned out to be 4750 ng/mL and the AUC(0-t) worked out at 71200 ng·h/mL.

Regarding `COc1ccc2c(c1)C=C1Cn3c-2c(C2CCCCC2)c2ccc(cc23)C(=O)NS(=O)(=O)N(C)CCOCCN(C)C1=O` [III], in data set [2] (setting [5]), the Cmin is listed as 0.21 (86%) μg/ml, the Cmax came to 6570 ng/mL and the AUC(0-t) came to 52200 ng·h/mL. Further, in data set [2] ((III) alone, 1000 mg bid), the Cmin is reported as 0.16 (42%) μg/ml, the highest concentration (Cmax) stood at 5220 ng/mL and the AUC(0-t) amounted to 40100 ng·h/mL.
